Test results: patent publication US20060014699A1, “Aqueous pharmaceutical formulaton comprising the thrombin inhibitor melagatran and use of the formulation in the manufacture of a medicament for use by nasal administration in treating thromboembolism” (AstraZeneca AB, priority 2002, published 2006)

Assays:
[1] = Bioavailability of intranasal melagatran in rats, with and without absorption enhancers; type: in vivo; details: rat, inhaled or intranasal
Experimental: Using standard techniques, melagatran was administered to rats in formulations with and without the enhancers SDS (sodium dodecyl sulfate) or EDTA. The bioavailability was measured by analysis of blood plasma samples using standrad techniques.

[2] = Rate and extent of absorption after intranasal administration to healthy male subjects; type: in vivo, human; details: healthy male humans; for bioavailability: male, human, plasma, inhaled or intranasal
Experimental: (§1) The rate and extent of absorption of melagatran as well as the safety and tolerability were investigated after intranasal administration to six healthy male subjects (between 20 and 40 years of age, body weight between 66 and 86 kg). The trial comprised three study days, separated by wash-out periods of 6-28 days. On study day 1, a single dose of 5 mg of melagatran was administered. The following two study days 10 mg and 20 mg, respectively, were administered.
(§2) Samples for determination of plasma concentration of melagatran (by LC-MS) and for degree of anticoagulation were collected before and up to 10 hours after drug administration. Safety measurements included blood pressure, heart rate and recording of adverse events.
(§3) The safety and tolerability of melagatran when administered nasally were considered satisfactory.

[3] = Safety and tolerability after intranasal administration to healthy male subjects; type: in vivo, human; details: healthy male humans, nasal administration, 5, 10 and 20 mg; blood pressure, heart rate, adverse events
Experimental: as §1, §2, §3

With N=C(N)c1ccc(CNC(=O)[C@@H]2CCN2C(=O)[C@H](NCC(=O)O)C2CCCCC2)cc1 [melagatran, HOOC—CH2—(R)-Cgl-Aze-Pab] the bioavailability ([1]; 20 umol/kg, melagatran alone (no enhancer), blood plasma samples, read-out: bioavailability) was about 10%, the bioavailability ([1]; plasma, 20 μmol/kg, formulations with enhancers SDS or EDTA, read-out: bioavailability with enhancers) was at most 19% and the “dose dependence of rate or extent of absorption” value ([2]; intranasal, 5, 10 and 20 mg) was “no indication of a dose dependent rate or extent of absorption”. The “absorption after intranasal administration (rate)” value ([2]; intranasal, 5-20 mg) was “rapid”, the bioavailability ([2]; 5 mg, intranasal, single dose 5 mg, six subjects, read-out: median bioavailability) was 19% and the bioavailability ([2]; 10 mg, intranasal, single dose 10 mg, six subjects, read-out: median bioavailability) was 12%. For the same compound, the bioavailability ([2]; 20 mg, intranasal, 5, 10 and 20 mg, read-out: bioavailability, range over the six subjects at the three doses) was 7 to 45%, the bioavailability ([2]; 20 mg, intranasal, single dose 20 mg, six subjects, read-out: median bioavailability) was 19% and the safety and tolerability [3] was “satisfactory”.
